# According to patent US9233979B2, “Compounds that are ERK inhibitors” (Merck Sharp & Dohme Corp., priority 2012, dated 2016):
# Molecular target: phosphorylated active hERK2 enzyme (Homo sapiens (Human), UniProt P28482)
# Experiment: Active Human ERK2 (hERK2) Activity Assay (IMAP-FP)
# Type: biochemical
# Conditions: Table 6, 0.5 nM hERK2, 30 μM ATP, 10 point titration, read-out: AERK2 IC50
# How it was run: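 IMAP detection beads in buffer with 24 mM NaCl stopped the reaction, and fluorescence polarization was read after 60 min binding.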
# Chain of phosphorylated active hERK2 enzyme (P28482 whole entry): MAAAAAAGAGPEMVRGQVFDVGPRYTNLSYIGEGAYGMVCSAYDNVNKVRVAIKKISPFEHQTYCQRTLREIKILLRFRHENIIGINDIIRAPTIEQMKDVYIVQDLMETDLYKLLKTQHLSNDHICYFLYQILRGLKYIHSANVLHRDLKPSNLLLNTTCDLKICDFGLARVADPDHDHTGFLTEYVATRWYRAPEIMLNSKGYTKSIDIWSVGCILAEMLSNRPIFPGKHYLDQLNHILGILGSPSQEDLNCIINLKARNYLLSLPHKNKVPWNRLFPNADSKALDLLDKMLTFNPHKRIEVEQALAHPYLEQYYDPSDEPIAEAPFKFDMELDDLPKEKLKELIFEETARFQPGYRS
row,SMILES,IC50 [nM]
1,"CCNc1n[nH]c2cc(NC(=O)NCc3c(F)cccc3OC)ncc12 [Example 242, 1-[3-(ethylamino)-1H-pyrazolo[4,3-c]pyridin-6-yl]-3-(2-fluoro-6-methoxybenzyl)-urea]",2.4
2,"CCNc1n[nH]c2cc(NC(=O)N[C@H](C)c3cccc(F)c3)ncc12 [Example 243, 1-[3-(ethylamino)-1H-pyrazolo[4,3-c]pyridin-6-yl]-3-[(1R)-1-(3-fluorophenyl)-ethyl]urea]",1.7
3,"CCNc1n[nH]c2cc(NC(=O)NCc3c(F)cccc3Cl)ncc12 [Example 244, 1-(2-chloro-6-fluorobenzyl)-3-[3-(ethylamino)-1H-pyrazolo[4,3-c]-pyridin-6-yl]urea]",10.8
4,"CCNc1n[nH]c2cc(NC(=O)N[C@H](C)c3ccc(F)c(Cl)c3)ncc12 [Example 245, 1-[(1R)-1-(3-chloro-4-fluorophenyl)ethyl]-3-[3-(ethylamino)-1H-pyrazolo[4,3-c]pyridin-6-yl]urea]",6.7
5,"CCNc1n[nH]c2cc(NC(=O)N[C@H](C)c3cccc(Cl)c3)ncc12 [Example 246, 1-[(1R)-1-(3-chlorophenyl)ethyl]-3-[3-(ethylamino)-1H-pyrazolo[4,3-c]pyridin-6-yl]urea]",2.4
6,"CCNc1n[nH]c2cc(NC(=O)N[C@H](CC)c3ccc(Cl)cc3)ncc12 [Example 247, 1-[(1R)-1-(4-chlorophenyl)propyl]-3-[3-(ethylamino)-1H-pyrazolo[4,3-c]-pyridin-6-yl]urea]",2.2
7,"CCNc1n[nH]c2cc(NC(=O)N[C@H](C)c3ccc(Cl)c(Cl)c3)ncc12 [Example 248, 1-[(1R)-1-(3,4-dichlorophenyl)ethyl]-3-[3-(ethyl-amino)-1H-pyrazolo[4,3-c]-pyridin-6-yl]urea]",3.2
8,"CCNc1n[nH]c2cc(NC(=O)N[C@H](C)c3ccc(Cl)cc3)ncc12 [Example 249, 1-[(1R)-1-(4-chlorophenyl)ethyl]-3-[3-(ethylamino)-1H-pyrazolo[4,3-c]pyridin-6-yl]urea]",12
9,"CCNc1n[nH]c2cc(NC(=O)NCc3cccnc3N(C)C)ncc12 [Example 250, 1-{[2-(dimethyl-amino)pyridin-3-yl]methyl}-3-[3-(ethylamino)-1H-pyrazolo[4,3-c]-pyridin-6-yl]urea]",32
10,"CCNc1n[nH]c2cc(NC(=O)NC(C)c3ccc(F)c(F)c3)ncc12 (stereo not shown) [Example 251, 1-[1-(3,4-difluoro-phenyl)ethyl]-3-[3-(ethylamino)-1H-pyrazolo[4,3-c]-pyridin-6-yl]urea]",3.2
11,"CCNc1n[nH]c2cc(NC(=O)N[C@H](C)c3ccc(Cl)c(C)c3)ncc12 [Example 252, 1-[(1R)-1-(4-chloro-3-methyl-phenyl)ethyl]-3-[3-(ethylamino)-1H-pyrazolo[4,3-c]-pyridin-6-yl]urea]",2
12,"CCNc1n[nH]c2cc(NC(=O)N[C@@H]3CN(C)C[C@H]3c3ccccc3)ncc12 [Example 253, 1-[3-(ethylamino)-1H-pyrazolo[4,3-c]pyridin-6-yl]-3-[(3S,4R)-1-methyl-4-phenylpyrrolidin-3-yl]urea]",1
13,"CC(CNC(=O)Nc1cc2[nH]nc(N)c2cn1)c1ccccc1 (stereo not shown) [Example 254, 1-(3-amino-1H-pyrazolo[4,3-c]pyridin-6-yl)-3-(2-phenyl-propyl)urea]",57.7
14,"C[C@@H](NC(=O)Nc1cc2[nH]nc(N)c2cn1)C1CCCCC1 [Example 255, 1-(3-amino-1H-pyrazolo[4,3-c]pyridin-6-yl)-3-[(1R)-1-cyclohexyl-ethyl]urea]",18.1
15,"Nc1n[nH]c2cc(NC(=O)NC3CNc4ccccc4C3)ncc12 (stereo not shown) [Example 256, 1-(3-amino-1H-pyrazolo[4,3-c]pyridin-6-yl)-3-(1,2,3,4-tetrahydro-quinolin-3-yl)urea]",37.5
16,"Nc1n[nH]c2cc(NC(=O)NC3COc4ccccc4C3)ncc12 (stereo not shown) [Example 257, 1-(3-amino-1H-pyrazolo[4,3-c]pyridin-6-yl)-3-(3,4-dihydro-2H-chromen-3-yl)urea]",37.1
